From patent US8309097B2, “C-type lectin binding molecules, identification and uses thereof” (Vereniging voor Christelijk Wetenschappelijk Onderwijs, priority 2002, dated 2012)
Entries after “also recorded” stand apart in the source; their conditions may differ. Where two headings read alike, the source gives them in different places.

Columns and labels:
DC-SIGN-Fc [1] = target: T1, DC-SIGN-Fc (Homo sapiens, UniProt Q9NNX6); assay: Soluble DC-SIGN-Fc adhesion assay (Fc ELISA)
T1 sequence (Q9NNX6 64-404): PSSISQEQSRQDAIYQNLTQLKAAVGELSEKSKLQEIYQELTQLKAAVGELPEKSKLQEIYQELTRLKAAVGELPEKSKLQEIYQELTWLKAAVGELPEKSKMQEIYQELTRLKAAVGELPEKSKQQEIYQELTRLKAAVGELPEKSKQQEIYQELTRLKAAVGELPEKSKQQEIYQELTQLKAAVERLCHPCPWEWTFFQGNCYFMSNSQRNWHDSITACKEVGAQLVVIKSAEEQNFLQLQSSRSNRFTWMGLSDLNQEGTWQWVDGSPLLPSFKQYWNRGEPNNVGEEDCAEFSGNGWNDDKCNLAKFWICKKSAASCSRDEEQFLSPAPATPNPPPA

[2] = target: T2, DC-SIGN expressed by K562 transfectants (Homo sapiens, UniProt Q9NNX6); assay type: cell-based
T2 construct: expressed in transfected cells; host or cells: K562
T2 sequence (Q9NNX6 1-404): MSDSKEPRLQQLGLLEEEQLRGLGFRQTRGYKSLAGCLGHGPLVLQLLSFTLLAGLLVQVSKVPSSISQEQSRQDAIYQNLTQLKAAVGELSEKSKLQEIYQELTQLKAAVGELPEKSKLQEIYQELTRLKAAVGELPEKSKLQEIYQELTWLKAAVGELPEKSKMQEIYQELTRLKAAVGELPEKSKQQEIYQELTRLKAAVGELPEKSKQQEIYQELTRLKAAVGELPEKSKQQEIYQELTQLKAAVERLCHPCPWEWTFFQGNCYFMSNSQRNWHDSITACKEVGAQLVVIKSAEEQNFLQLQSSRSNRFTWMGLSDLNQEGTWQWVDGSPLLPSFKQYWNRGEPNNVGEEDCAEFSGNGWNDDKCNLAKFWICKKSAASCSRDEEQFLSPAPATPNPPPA

mSIGNR1 = mSIGNR1 (Mus musculus, UniProt Q8CJ91); assay type: cell-based, murine
[3] = target: T3, DC-SIGN on immature monocyte derived DC (Homo sapiens, UniProt Q9NNX6); assay: Fluorescent bead adhesion assay, immature DC; assay type: cell-based
T3 construct: Immature DC were cultured from monocytes in the presence of IL-4 and GM-CSF; endogenous in cells; host or cells: immature monocyte-derived dendritic cells
T3 sequence (Q9NNX6 1-404): T2 sequence (Q9NNX6 1-404)

DC-SIGN-Fc [4] = target: T1, DC-SIGN-Fc; assay: Immunoprecipitation and detection with DC-SIGN-Fc; assay type: binding; settings: immunoprecipitation
Text: FIG. 59. […] Cell-surface proteins are biotinylated and PMNs are lysed. Lane 1. negative control using ICAM-3 Fc to capture by IP proteins. Detection is peroxidase-labeled streptavidin. Lane 2. DC-SIGN-Fc is used to capture ligands biotinylated ligands from lysate; two protein bands are visible, the upper band consists of CD11b and CD66a, whereas the lower consists of CD18. Lane 3. Negative control; no bands are immune precipitated with anti-DC-SIGN antibodies. Lane 4, IP with antibodies against CD66acd; a faint band is visible containing CD66a. Lane 5, IP of CD11b; two bands are visible; the upper band is […] and the lower band is CD18m, which is co-immuneprecipitated with […]. Lane 6. IP with DC-SIGN ligands and detection with anti-CD66acd; CD66a is captured by DC-SIGN Fc. Lane 7. IP with DC-SIGN ligands and detection with anti-CD11b; CD11b is captured by DC-SIGN Fc. Lane 8. Negative control, IP with anti-DC-SIGN antibodies and detection with DC-SIGN-Fc. Lane 9. IP with anti-CD66acd and detection with DC-SIGN Fc; CD66a is bound by DC-SIGN on blot. Lane 10. IP with anti-CD11a and detection with DC-SIGN Fc; CD11a is bound by DC-SIGN on blot.
Immunoprecipitation. […]

granulocytes = assay: DC-SIGN-Fc adhesion to granulocytes
[5] = system: K562 transfectants expressing DC-SIGN; assay type: cell-based, human
immature DC = assay type: cell-based, human
[6] = target: L-SIGN expressed by K562 transfectants (Homo sapiens, UniProt Q9H2X3); assay type: cell-based
Chain of L-SIGN expressed by K562 transfectants (Q9H2X3 whole entry, looked up): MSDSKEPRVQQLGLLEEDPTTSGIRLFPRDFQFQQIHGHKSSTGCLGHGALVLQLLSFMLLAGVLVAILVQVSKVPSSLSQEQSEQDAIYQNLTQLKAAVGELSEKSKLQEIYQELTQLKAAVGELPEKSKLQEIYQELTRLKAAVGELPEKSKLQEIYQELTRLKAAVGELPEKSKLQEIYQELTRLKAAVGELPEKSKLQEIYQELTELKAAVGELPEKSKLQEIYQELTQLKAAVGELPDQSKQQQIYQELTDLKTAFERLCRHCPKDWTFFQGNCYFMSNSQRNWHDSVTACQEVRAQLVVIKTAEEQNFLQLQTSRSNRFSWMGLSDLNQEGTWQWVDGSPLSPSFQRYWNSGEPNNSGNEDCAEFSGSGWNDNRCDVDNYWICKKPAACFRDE

Chain of mSIGNR1 (Q8CJ91 whole entry): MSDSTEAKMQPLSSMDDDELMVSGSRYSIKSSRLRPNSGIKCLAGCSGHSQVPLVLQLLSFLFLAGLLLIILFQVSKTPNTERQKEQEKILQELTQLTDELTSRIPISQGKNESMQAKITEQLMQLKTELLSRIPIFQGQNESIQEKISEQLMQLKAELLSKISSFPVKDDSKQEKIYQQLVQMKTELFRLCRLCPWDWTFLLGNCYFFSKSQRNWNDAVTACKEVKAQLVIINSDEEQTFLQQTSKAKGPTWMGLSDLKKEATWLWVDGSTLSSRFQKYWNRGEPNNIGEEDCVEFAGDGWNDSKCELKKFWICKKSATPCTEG

## […]-L-fucose
DC-SIGN-Fc [1]
  binding of DC-SIGN-Fc to coated ligand: lower binding affinity

## sialyl Lewis A
[2]
  binding of ligand-coated beads to K562 DC-SIGN transfectants: bind
mSIGNR1
  binding of ligand-coated beads to K562 mSIGNR1 transfectants: bind

## sialyl-Le^x
DC-SIGN-Fc [1]
  binding of DC-SIGN-Fc to coated ligand: completely abrogates the recognition; also recorded: lower binding affinity
mSIGNR1
  binding of ligand-coated beads to K562 mSIGNR1 transfectants: interacts

## α1->3, α1->6 mannotriose
[3]
  binding of ligand-coated beads to immature DC: preferentially bound by DC-SIGN
DC-SIGN-Fc [1]
  binding of DC-SIGN-Fc to coated ligand: binds; also recorded: high affinity
[2]
  binding of ligand-coated beads to K562 DC-SIGN transfectants: bound similarly to the glycoconjugates as DC-SIGN-Fc

## CD11b: Lewis X-expressing CD11b captured from PMN lysate
DC-SIGN-Fc [1]; ELISA, ligand coated
  binding of DC-SIGN-Fc to coated ligand: high affinity binding
[2]
  binding of ligand-coated beads to K562 DC-SIGN transfectants: interacted strongly
DC-SIGN-Fc [4]
  binding of DC-SIGN-Fc after α-1,3,4 Fucosidase treatment of the ligand: abrogated

## O=C(O)CN(CCOCCOCCN(CC(=O)O)CC(=O)O)CC(=O)O [EGTA]
[3]
  inhibition of ManLAM binding by immature DC: block
DC-SIGN-Fc [1]; coated SEA
  inhibition of DC-SIGN-Fc binding to SEA: completely inhibited
DC-SIGN-Fc [1]; coated whole mycobacteria
  inhibition of DC-SIGN-Fc binding to M. tuberculosis and M. bovis BCG: inhibited
granulocytes
  inhibition of DC-SIGN-Fc binding to granulocytes: blocked

## mannan
[3]
  inhibition of ManLAM binding by immature DC: block
  inhibition of SEA binding to DC: strongly blocked
[5]
  inhibition of internalization of M. bovis BCG by K562 DC-SIGN transfectants: blocked
DC-SIGN-Fc [1]
  binding of DC-SIGN-Fc to coated ligand: binds
  inhibition of DC-SIGN-Fc binding to M. tuberculosis and M. bovis BCG: inhibited
Immature DC
  inhibition of M. bovis BCG binding/infection of immature DC: blocked the infection to a similar level as the DC-SIGN antibodies
  inhibition of Neisseria IgtB binding to DC: partly inhibit
granulocytes
  inhibition of DC-SIGN-Fc binding to granulocytes: blocked
[2]
  binding of ligand-coated beads to K562 DC-SIGN transfectants: bind
  inhibition of gp120 binding to DC-SIGN: inhibited
mSIGNR1
  binding of ligand-coated beads to K562 mSIGNR1 transfectants: bind
  inhibition of gp120 binding to mSIGNR1: inhibited
[6]
  binding of ligand-coated beads to K562 L-SIGN transfectants: bind
  inhibition of gp120 binding to L-SIGN: inhibited
